biological target: T1, MAGL (Homo sapiens, UniProt Q99685); assay: 2-AG assay (MAGL inhibitory activity; hydrolysis of 2-arachidonoylglycerol to arachidonic acid followed by mass spectrometry); format: biochemical; conditions: 15 min preincubation at RT, 8 μM 2-arachidonoylglycerol, 30 min at RT, RapidFire MS readout
T1 sequence (Q99685 1-303): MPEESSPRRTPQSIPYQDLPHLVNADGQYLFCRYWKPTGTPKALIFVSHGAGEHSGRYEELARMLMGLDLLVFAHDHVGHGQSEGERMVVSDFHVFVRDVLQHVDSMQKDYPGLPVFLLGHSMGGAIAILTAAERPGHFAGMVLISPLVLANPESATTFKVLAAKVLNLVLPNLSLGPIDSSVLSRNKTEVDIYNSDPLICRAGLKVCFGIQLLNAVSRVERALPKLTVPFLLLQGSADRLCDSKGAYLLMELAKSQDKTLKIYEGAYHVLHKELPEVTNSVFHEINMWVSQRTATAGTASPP
In short: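 Compounds (final 12.5 μM to […], 3-fold steps) preincubated 15 min at RT with MAGL ([…]) in 50 mM TRIS, 1 mM EDTA, Tween buffer. Reaction started with 8 μM 2-arachidonoylglycerol, run 30 min at RT, quenched with ACN containing d8-arachidonic acid. Arachidonic acid quantified by RapidFire SPE-triple quadrupole MS (negative ESI), activity from arachidonic acid/d8 ratio.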

| IC50 | SMILES |
| --- | --- |
| 146 nM | COc1cccc(C(=O)N2CCN3CC(c4ccc(C(F)F)cc4)OCC3C2)c1Cl (mixture of isomers) [Example 48, (2-chloro-3-methoxy-phenyl)-[3-[4-(difluoromethyl)phenyl]-3,4,6,7,9,9a-hexahydro-1H-pyrazino[2,1-c][1,4]oxazin-8-yl]methanone] |
| 10.6 nM | Cc1[nH]ncc1-c1cccc(C(=O)N2CCN3C[C@@H](c4ccc(F)c(Cl)c4)OC[C@@H]3C2)c1Cl [Example 26, [(3R,9aS)-3-(3-chloro-4-fluoro-phenyl)-3,4,6,7,9,9a-hexahydro-1H-pyrazino[2,1-c][1,4]oxazin-8-yl]-[2-chloro-3-(5-methyl-1H-pyrazol-4-yl)phenyl]methanone] |
| 1310 nM | COc1cccc(C(=O)N2CCN3C[C@@H](c4cccc(C(F)(F)F)n4)OC[C@@H]3C2)c1Cl (single isomer, unassigned) [Example 63] |
| 305 nM | COc1ccc(C(=O)N2CCN3C[C@@H](c4ccc(F)c(Cl)c4)OC[C@@H]3C2)c(Cl)c1OC [Example 19, [(3R,9aS)-3-(3-chloro-4-fluoro-phenyl)-3,4,6,7,9,9a-hexahydro-1H-pyrazino[2,1-c][1,4]oxazin-8-yl]-(2-chloro-3,4-dimethoxy-phenyl)methanone] |
| 32.6 nM | Cc1cnccc1-c1cccc(C(=O)N2CCN3C[C@@H](c4ccc(F)c(Cl)c4)OC[C@@H]3C2)c1Cl [Example 28, [(3R,9aS)-3-(3-chloro-4-fluoro-phenyl)-3,4,6,7,9,9a-hexahydro-1H-pyrazino[2,1-c][1,4]oxazin-8-yl]-[2-chloro-3-(3-methyl-4-pyridyl)phenyl]methanone] |
| 983 nM | COc1cccc(C(=O)N2CCN3C=C(c4nc5ccccc5s4)OCC3C2)c1Cl (stereo not shown) [Example 87, [3-(1,3-benzothiazol-2-yl)-6,7,9,9a-tetrahydro-1H-pyrazino[2,1-c][1,4]oxazin-8-yl]-(2-chloro-3-methoxy-phenyl)methanone] |
| 5 nM | COc1cccc(C(=O)N2CCN3C[C@@H](c4ccc(Br)c(Cl)c4)OC[C@@H]3C2)c1Cl [Example 110, [(3R,9aS)-3-(4-bromo-3-chloro-phenyl)-3,4,6,7,9,9a-hexahydro-1H-pyrazino[2,1-c][1,4]oxazin-8-yl]-(2-chloro-3-methoxy-phenyl)methanone] |
| 160 nM | Cc1nocc1-c1cccc(C(=O)N2CCN3C[C@@H](c4ccc(F)c(Cl)c4)OC[C@@H]3C2)c1Cl [Example 40, [(3R,9aS)-3-(3-chloro-4-fluoro-phenyl)-3,4,6,7,9,9a-hexahydro-1H-pyrazino[2,1-c][1,4]oxazin-8-yl]-[2-chloro-3-(3-methylisoxazol-4-yl)phenyl]methanone] |
| 51.2 nM | COc1cc(OC)c(Cl)c(C(=O)N2CCN3C[C@@H](c4ccc(F)c(Cl)c4)OC[C@@H]3C2)c1 [Example 18, [(3R,9aS)-3-(3-chloro-4-fluoro-phenyl)-3,4,6,7,9,9a-hexahydro-1H-pyrazino[2,1-c][1,4]oxazin-8-yl]-(2-chloro-3,5-dimethoxy-phenyl)methanone] |
| 3.1 nM | COc1cccc(C(=O)N2CCN3CC(c4ccc(F)c(Cl)c4)SC[C@@H]3C2)c1Cl (single isomer, unassigned) [Example 161] |
| 546 nM | COc1cccc(C(=O)N2CCN3C[C@@](O)(c4ccccc4Cl)OC[C@@H]3C2)c1Cl [Example 150, [(3R,9aS)-3-(2-chlorophenyl)-3-hydroxy-1,4,6,7,9,9a-hexahydropyrazino[2,1-c][1,4]oxazin-8-yl]-(2-chloro-3-methoxy-phenyl)methanone] |
| 220 nM | O=C(c1cccc(-c2c[nH]nc2F)c1Cl)N1CCN2C=C(c3ccc(C(F)(F)F)cn3)OC[C@@H]2C1 [Example 94, [(9aS)-3-[5-(trifluoromethyl)-2-pyridyl]-6,7,9,9a-tetrahydro-1H-pyrazino[2,1-c][1,4]oxazin-8-yl]-[2-chloro-3-(3-fluoro-1H-pyrazol-4-yl)phenyl]methanone] |
| 118 nM | COc1cccc(C(=O)N2CCN3C[C@@](O)(c4cc(Br)c(OC)s4)OC[C@@H]3C2)c1Cl [Example 131, [(3S,9aS)-3-(4-bromo-5-methoxy-2-thienyl)-3-hydroxy-1,4,6,7,9,9a-hexahydropyrazino[2,1-c][1,4]oxazin-8-yl]-(2-chloro-3-methoxy-phenyl)methanone] |
| 190 nM | N#Cc1cc(-c2cccc(C(=O)N3CCN4C[C@@H](c5ccc(F)c(Cl)c5)OC[C@@H]4C3)c2Cl)n[nH]1 [Example 138, 3-[3-[(3R,9aS)-3-(3-chloro-4-fluoro-phenyl)-3,4,6,7,9,9a-hexahydro-1H-pyrazino[2,1-c][1,4]oxazine-8-carbonyl]-2-chloro-phenyl]-1H-pyrazole-5-carbonitrile] |
| 81.9 nM | O=C(c1cccc(-c2c[nH]nc2F)c1)N1CCN2C[C@@](O)(c3ccc(F)c(F)c3)OC[C@@H]2C1 [Example 93, [(3R,9aS)-3-(3,4-difluorophenyl)-3-hydroxy-1,4,6,7,9,9a-hexahydropyrazino[2,1-c][1,4]oxazin-8-yl]-[3-(3-fluoro-1H-pyrazol-4-yl)phenyl]methanone] |
| 19.4 nM | COc1cccc(C(=O)N2CCN3C[C@@](O)(c4ccc(F)c(Cl)c4)OC[C@@H]3C2)c1Cl [Example 45, [(3R,9aS)-3-(3-chloro-4-fluoro-phenyl)-3-hydroxy-1,4,6,7,9,9a-hexahydropyrazino[2,1-c][1,4]oxazin-8-yl]-(2-chloro-3-methoxy-phenyl)methanone] |
| 103 nM | COc1cccc(C(=O)N2CCN3C[C@@H](c4cc(F)c(F)cc4F)OC[C@@H]3C2)c1Cl [Example 128, [(3R,9aS)-3-(2,4,5-trifluorophenyl)-3,4,6,7,9,9a-hexahydro-1H-pyrazino[2,1-c][1,4]oxazin-8-yl]-(2-chloro-3-methoxy-phenyl)methanone] |
| 1080 nM | Cc1cncnc1-c1cccc(C(=O)N2CCN3C[C@@H](c4ccc(F)c(Cl)c4)OC[C@@H]3C2)c1Cl [Example 35, [(3R,9aS)-3-(3-chloro-4-fluoro-phenyl)-3,4,6,7,9,9a-hexahydro-1H-pyrazino[2,1-c][1,4]oxazin-8-yl]-[2-chloro-3-(5-methylpyrimidin-4-yl)phenyl]methanone] |
| 849 nM | COc1cccc(C(=O)N2CCN3C[C@@](O)(c4cc(Br)no4)OC[C@@H]3C2)c1Cl [Example 157, [(3S,9aS)-3-(3-bromoisoxazol-5-yl)-3-hydroxy-1,4,6,7,9,9a-hexahydropyrazino[2,1-c][1,4]oxazin-8-yl]-(2-chloro-3-methoxy-phenyl)methanone] |
| 8.4 nM | COc1cccc(C(=O)N2CCN3C[C@@H](c4cc(Cl)c(Cl)cn4)OC[C@@H]3C2)c1Cl (single isomer, unassigned) [Example 67] |
| 28.2 nM | O=C(c1cccc(-c2cn[nH]c2C(F)(F)F)c1)N1CCN2C[C@@H](c3ccc(F)c(Cl)c3)OC[C@@H]2C1 [Example 103, [(3R,9aS)-3-(3-chloro-4-fluoro-phenyl)-3,4,6,7,9,9a-hexahydro-1H-pyrazino[2,1-c][1,4]oxazin-8-yl]-[3-[5-(trifluoromethyl)-1H-pyrazol-4-yl]phenyl]methanone] |
| 113 nM | COc1cccc(C(=O)N2CCN3C[C@@](O)(c4ccc(Cl)cc4Cl)OC[C@@H]3C2)c1Cl [Example 129, [(3R,9aS)-3-(2,4-dichlorophenyl)-3-hydroxy-1,4,6,7,9,9a-hexahydropyrazino[2,1-c][1,4]oxazin-8-yl]-(2-chloro-3-methoxy-phenyl)methanone] |
| 780 nM | COc1cccc(C(=O)N2CCN3C[C@@H](c4ccc(C(F)(F)F)[nH]c4=O)OC[C@@H]3C2)c1Cl [Example 155, 3-[(3R,9aS)-8-(2-chloro-3-methoxy-benzoyl)-3,4,6,7,9,9a-hexahydro-1H-pyrazino[2,1-c][1,4]oxazin-3-yl]-6-(trifluoromethyl)-1H-pyridin-2-one] |
| 2210 nM | COc1cccc(C(=O)N2CCN3C[C@H](c4cc(Cl)c[nH]c4=O)OC[C@@H]3C2)c1Cl [Example 74, 3-[(3S,9aS)-8-(2-chloro-3-methoxy-benzoyl)-3,4,6,7,9,9a-hexahydro-1H-pyrazino[2,1-c][1,4]oxazin-3-yl]-5-chloro-1H-pyridin-2-one] |
| 5.8 nM | COc1ccc(F)c(C(=O)N2CCN3C[C@@H](c4ccc(F)c(Cl)c4)OC[C@@H]3C2)c1Cl [Example 111, [(3R,9aS)-3-(3-chloro-4-fluoro-phenyl)-3,4,6,7,9,9a-hexahydro-1H-pyrazino[2,1-c][1,4]oxazin-8-yl]-(2-chloro-6-fluoro-3-methoxy-phenyl)methanone] |
| 26.2 nM | N#Cc1n[nH]cc1-c1cccc(C(=O)N2CCN3C[C@@](O)(c4ccc(C(F)(F)F)nc4)OC[C@@H]3C2)c1Cl [Example 80, 4-[3-[(3R,9aS)-3-hydroxy-3-[6-(trifluoromethyl)-3-pyridyl]-1,4,6,7,9,9a-hexahydropyrazino[2,1-c][1,4]oxazine-8-carbonyl]-2-chloro-phenyl]-1H-pyrazole-3-carbonitrile] |
| 531 nM | COc1cccc(C(=O)N2CCN3C[C@H](c4cc(Cl)c(Cl)cn4)OC[C@H]3C2)c1Cl (single isomer, unassigned) [Example 66] |
| 1 nM | O=C(c1cccc(-c2c[nH]nc2F)c1Cl)N1CCN2C[C@@H](c3ccc(F)c(Cl)c3)OC[C@@H]2C1 [Example 49, [(3R,9aS)-3-(3-chloro-4-fluoro-phenyl)-3,4,6,7,9,9a-hexahydro-1H-pyrazino[2,1-c][1,4]oxazin-8-yl]-[2-chloro-3-(3-fluoro-1H-pyrazol-4-yl)phenyl]methanone] |
